The source of these data is patent publication US10875876B2, “Cyclized sulfamoylarylamide derivatives and the use thereof as medicaments for the treatment of hepatitis B” (priority 2015, dated 2020).

Like-named read-outs stand apart in the source and are kept apart here.

In series [1] the test system is HBV. In words: anti HBV activity, HepG2.117 cell line, intracellular HBV DNA by realtime PCR. In kind it is cell-based. To be noted: HepG2.117 cell line (Tet-off), 3 days of treatment, intracellular HBV DNA quantified by realtime PCR, read-out: HBV-AVE-HepG2.117 EC50. In a few lines:
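HepG2.117 cells, a Tet-off line that replicates HBV without doxycycline, were induced and then treated in duplicate with serially diluted compound. After 3 days, intracellular HBV DNA was quantified by real-time PCR with an HBV-specific primer set and probe.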

Series [2] concerns HepG2 cells. In words: Cytotoxicity in HepG2 cells, Resazurin assay. To be noted: read-out: TOX-HepG2-4 d CC50; HepG2 cells incubated for 4 days, viability by Resazurin assay. On the technique in general: Resazurin is reduced to fluorescent resorufin, in cell work by metabolically active cells.
Series [3] is described as follows: Cytotoxicity in HepG2 cells, Resazurin assay. As to conditions: human, HepG2 cells, TOX-HepG2-4 d CC50 (μM), HepG2 cells incubated for 4 days, viability by Resazurin assay.
The mark [4] stands for this setting: Hepatitis B virus, HepG2.117, 72 h.

Usually EC50 stands for the midpoint of the concentration-response curve. One may read the CC50 as the concentration at which the toxic effect on the cells reaches its halfway point. For `CC1C=Cc2c(cn(C)c2C(=O)Nc2ccc(F)c(F)c2)S(=O)(=O)N1` (single isomer, unassigned) [Compound 7b, N-(3,4-difluorophenyl)-3,7-dimethyl-1,1-dioxo-2,3-dihydropyrrolo-[3,4-f]thiazepine-6-carboxamide], the EC50 in series [1] was 7 nM. The half-maximal cytotoxic concentration (CC50) in series [2] was greater than 25000 nM.
In the same order, the values of `CC1CCc2c(cn(C)c2C(=O)Nc2ccc(F)c(F)c2)S(=O)(=O)N1` (single isomer, unassigned) [Compound 10b, N-(3,4-difluorophenyl)-3,7-dimethyl-1,1-dioxo-2,3,4,5-tetrahydropyrrolo[3,4-f]thiazepine-6-carboxamide] are 6 nM and greater than 25000 nM.
In the same order, the values of `CC1COc2c(cn(C)c2C(=O)Nc2ccc(F)c(F)c2)S(=O)(=O)N1` (single isomer, unassigned) [Compound 14b, N-(3,4-difluorophenyl)-3,7-dimethyl-1,1-dioxo-3,4-dihydro-2H-pyrrolo-[3,4-b][1,4,5]oxathiazepine-6-carboxamide] are 78 nM and greater than 25000 nM.
For `CC1C/C=C\c2c(cn(C)c2C(=O)Nc2ccc(F)c(F)c2)S(=O)(=O)N1` (single isomer, unassigned) [Compound 15b, (5Z)—N-(3,4-difluorophenyl)-3,8-dimethyl-1,1-dioxo-3,4-dihydro-2H-pyrrolo[3,4-g]thiazocine-7-carboxamide], in series [1], the EC50 is greater than 500 nM. For the same molecule, the 50% cytotoxic concentration (CC50) in series [2] was greater than 25000 nM.
In the same order, the values of `Cn1cc2c(c1C(=O)Nc1ccnc(C(F)(F)F)c1)CCC(C(F)(F)F)NS2(=O)=O` (single isomer, unassigned) [Compound 59b, 7-methyl-1,1-dioxo-3-(trifluoromethyl)-N-[2-(trifluoromethyl)-4-pyridyl]-2,3,4,5-tetrahydropyrrolo[3,4-f]thiazepine-6-carboxamide] are 140 nM and greater than 25000 nM.
Taken in the same sequence, the figures for `Cn1cc2c(c1C(=O)Nc1ccc(F)c(C#N)c1)CCC(C(F)(F)F)NS2(=O)=O` (single isomer, unassigned) [Compound 60b, N-(3-cyano-4-fluoro-phenyl)-7-methyl-1,1-dioxo-3-(trifluoromethyl)-2,3,4,5-tetrahydropyrrolo[3,4-f]thiazepine-6-carboxamide] were 5 nM and greater than 25000 nM.
For the molecule `Cc1cc(CC2(C)COc3c(cn(C)c3C(=O)Nc3ccc(F)c(C(F)F)c3)S(=O)(=O)N2)n(C)n1` (single isomer, unassigned) [Compound 176b, N-[3-(difluoromethyl)-4-fluoro-phenyl]-3-[(2,5-dimethylpyrazol-3-yl)methyl]-3,7-dimethyl-1,1-dioxo-2,4-dihydropyrrolo[3,4-b][1,4,5]oxathiazepine-6-carboxamide], the CC50 in series [2] was greater than 25000 nM.
For orientation: melting point means the temperature of the solid-liquid transition. In turn, `Cn1cc2c(c1C(=O)Nc1ccc(F)c(Br)c1F)CCC(C(C)(C)O)NS2(=O)=O` (stereo not shown) [Compound 179, N-(3-bromo-2,4-difluoro-phenyl)-3-(1-hydroxy-1-methyl-ethyl)-7-methyl-1,1-dioxo-2,3,4,5-tetrahydropyrrolo[3,4-f]thiazepine-6-carboxamide] had a melting point of 236.8 °C. Moreover, the EC50 in series [1] (setting [4]) was found to be 21 nM. For the same molecule, the CC50 at 4 days in series [3] was greater than 25 µM.
On to `Cn1cc2c(c1C(=O)Nc1ccc(F)c(Cl)c1)OC[C@H](C(C)(C)O)NS2(=O)=O` [Compound 180, (3R)—N-(3-chloro-4-fluoro-phenyl)-3-(1-hydroxy-1-methyl-ethyl)-7-methyl-1,1-dioxo-3,4-dihydro-2H-pyrrolo[3,4-b][1,4,5]oxathiazepine-6-carboxamide], for which the melting point turned out to be 234.1 °C. Besides, the EC50 in series [1] (setting [4]) amounted to 5 nM. For the same molecule, the CC50 at 4 days in series [3] was greater than 25 µM.
Taken in the same sequence, the figures for `Cn1cc2c(c1C(=O)Nc1ccc(F)c(C(F)F)c1F)OC[C@H](C(C)(C)O)NS2(=O)=O` [Compound 182, (3R)—N-[3-(difluoromethyl)-2,4-difluoro-phenyl]-3-(1-hydroxy-1-methyl-ethyl)-7-methyl-1,1-dioxo-3,4-dihydro-2H-pyrrolo[3,4-b][1,4,5]oxathiazepine-6-carboxamide] were 182.1 °C, 10 nM and greater than 25 µM.
`Cn1ccnc1CC1(C)COc2c(cn(C)c2C(=O)Nc2ccc(F)c(C(F)F)c2)S(=O)(=O)N1` (stereo not shown) [Compound 187, N-[3-(difluoromethyl)-4-fluoro-phenyl]-3,7-dimethyl-3-[(1-methylimidazol-2-yl)methyl]-1,1-dioxo-2,4-dihydropyrrolo[3,4-b][1,4,5]oxathiazepine-6-carboxamide]: the melting point was 282.8 °C. Moreover, in series [1] (setting [4]), the EC50 is 3 nM. In series [3], this molecule returned a CC50 at 4 days greater than 25 µM.
Taken in the same sequence, the figures for `C[C@H](O)[C@H]1CCc2c(cn(C)c2C(=O)Nc2ccc(F)c(C(F)F)c2F)S(=O)(=O)N1` [Compound 188, (3R)—N-[3-(difluoromethyl)-2,4-difluoro-phenyl]-3-[(1S)-1-hydroxyethyl]-7-methyl-1,1-dioxo-2,3,4,5-tetrahydropyrrolo[3,4-f]thiazepine-6-carboxamide] were 277.1 °C, 11 nM and greater than 25 µM.
Molecule `Cn1cc2c(c1C(=O)Nc1ccc(F)c(F)c1)OCC(C)(Cc1ccnc(Cl)c1)NS2(=O)=O` (stereo not shown) [Compound 190, 3-[(2-chloro-4-pyridyl)methyl]-N-(3,4-difluorophenyl)-3,7-dimethyl-1,1-dioxo-2,4-dihydropyrrolo[3,4-b][1,4,5]oxathiazepine-6-carboxamide] registered a melting point of 225 °C. Further, the EC50 in series [1] (setting [4]) stood at 6 nM. Moreover, the CC50 at 4 days in series [3] is greater than 25 µM.
Taken in the same sequence, the figures for `Cn1cc2c(c1C(=O)Nc1ccc(F)c(F)c1)OCC(C)(Cc1ccncc1)NS2(=O)=O` (stereo not shown) [Compound 191, N-(3,4-difluorophenyl)-3,7-dimethyl-1,1-dioxo-3-(4-pyridylmethyl)-2,4-dihydropyrrolo[3,4-b][1,4,5]oxathiazepine-6-carboxamide] were 276 °C, 10 nM and greater than 25 µM.
Taken in the same sequence, the figures for `C[C@H](O)[C@H]1CCc2c(cn(C)c2C(=O)Nc2ccc(F)c(Cl)c2)S(=O)(=O)N1` [Compound 193, (3R)—N-(3-chloro-4-fluoro-phenyl)-3-[(1S)-1-hydroxyethyl]-7-methyl-1,1-dioxo-2,3,4,5-tetrahydropyrrolo[3,4-f]thiazepine-6-carboxamide] were 290.8 °C, 6 nM and greater than 25 µM.
`C[C@H](O)[C@H]1C=Cc2c(cn(C)c2C(=O)Nc2ccc(F)c(Cl)c2)S(=O)(=O)N1` [Compound 194, (3R)—N-(3-chloro-4-fluoro-phenyl)-3-[(1S)-1-hydroxyethyl]-7-methyl-1,1-dioxo-2,3-dihydropyrrolo[3,4-f]thiazepine-6-carboxamide] returned a melting point of 211.3 °C. Besides, the EC50 in series [1] (setting [4]) is 6 nM. For the same molecule, in series [3], the CC50 at 4 days was greater than 25 µM.
Consider `Cn1cc2c(c1C(=O)Nc1ccc(F)c(Cl)c1)OCC(C)(Cc1cccnc1)NS2(=O)=O` (stereo not shown) [Compound 211, N-(3-chloro-4-fluoro-phenyl)-3,7-dimethyl-1,1-dioxo-3-(3-pyridylmethyl)-2,4-dihydropyrrolo[3,4-b][1,4,5]oxathiazepine-6-carboxamide], for which the melting point was 211.5 °C. For the same molecule, the EC50 in series [1] (setting [4]) was found to be 7 nM. Moreover, the CC50 at 4 days in series [3] was greater than 25 µM.
